Counter-ions that a name gives are not always drawn. Like-named read-outs stand apart in the source and are kept apart here.
Columns and labels:
[1] = system: agitation in subjects suffering from schizophrenia
Description: (§1) Another Key Objective of the study was to determine the reduction in the level of agitation, as determined by their PEC score, at the doses to achieve a RASS of −1.
(§2) Patients 5, 7, 8 and 9 received placebo.
(§3) CGI-I focused on the severity of agitation rather than the severity of the illness. • (4) After the infusion was stopped, the participants were judged for the suitability for discharge by the principal investigator or designee as witnessed by a return to their baseline level of alertness and awareness with no impairment in balance, gait, and reaction time as determined by the principal investigator or designee. Results (A) Efficacy Study RASS (Richmond Agitation-Sedation Scale)

[2] = system: subjects suffering from schizophrenia
Description: as §1, §2, §3

[3] = Protocol: as §2
The level of dexmedetomidine in the plasma of patients was also measured over the time of infusion.

[4] = system: acute agitation associated with schizophrenia, schizoaffective disorder or schizophreniform disorder; conditions: 2 hours post-dose
Description: PEC comprised 5 items associated with agitation: poor impulse control, tension, hostility, uncooperativeness, and excitement; each scored 1 (minimum) to 7 (maximum). The PEC, the sum of these 5 subscales, thus ranging from 5 to 35.
Efficacy Analyses: The primary efficacy endpoint of the study was the absolute change from baseline in PEC score at 120 mins (2 hours). The intent to treat population (ITT) was analyzed and consisted of all patients who took any study medication and who had both baseline and at least 1 efficacy assessment after dosing. Analyses were conducted using a restricted maximum likelihood repeated measures mixed model on change from baseline values with baseline as a covariate and timepoint, and its interaction with treatment groups as repeated measures using an unstructured covariance structure. Responder comparisons were made via Fisher's exact test.
There were 5 dose cohorts (20 μg, 60 μg, 80 μg, 120 μg and 180 μg) with 18 active patients (total of 90 patients) and 9 placebo patients (total of 45 patients) in each cohort. Active patients in each of the 5 dose cohorts were compared to placebo patients from all 5 cohorts (pooled placebo group).

Cc1cccc([C@H](C)c2cnc[nH]2)c1C [dexmedetomidine hydrochloride, (+) 4-(S)-[1-(2,3-dimethylphenyl)ethyl]-1H-imidazole]
−9.2: PANSS-PEC Total Score, Change from baseline, mean (SD) ([4]; 120 μg)
0.04117 ng/mL: Plasma level concentration ([3]; Patient 16 (Treatment), 45 Mins)
0.15854 ng/mL: Plasma level concentration ([3]; Patient 12 (Treatment), 75 Mins)
0.07226 ng/mL: Plasma level concentration ([3]; Patient 16 (Treatment), 75 Mins)
−7.3: PANSS-PEC Total Score, Change from baseline, mean (SD) ([4]; 80 μg)
BLQ: Plasma level concentration ([3]; Patient 1 (Treatment), 0 Mins) | Plasma level concentration ([3]; Patient 2 (Treatment), 0 Mins) | Plasma level concentration ([3]; Patient 2 (Treatment), 30 Mins) | Plasma level concentration ([3]; Patient 3 (Treatment), 30 Mins) | Plasma level concentration ([3]; Patient 3 (Treatment), 45 Mins) | Plasma level concentration ([3]; Patient 4 (Treatment), 0 Mins) | Plasma level concentration ([3]; Patient 4 (Treatment), 15 Mins) | Plasma level concentration ([3]; Patient 4 (Treatment), 30 Mins) | Plasma level concentration ([3]; Patient 4 (Treatment), 45 Mins) | Plasma level concentration ([3]; Patient 4 (Treatment), 60 Mins) | Plasma level concentration ([3]; Patient 4 (Treatment), 75 Mins) | Plasma level concentration ([3]; Patient 11 (Treatment), 0 Mins) | Plasma level concentration ([3]; Patient 12 (Treatment), 0 Mins) | Plasma level concentration ([3]; Patient 12 (Treatment), 15 Mins) | Plasma level concentration ([3]; Patient 14 (Treatment), 0 Mins) | Plasma level concentration ([3]; Patient 14 (Treatment), 15 Mins) | Plasma level concentration ([3]; Patient 16 (Treatment), 0 Mins) | Plasma level concentration ([3]; Patient 17 (Treatment), 0 Mins) | Plasma level concentration ([3]; Patient 17 (Treatment), 30 Mins) | Plasma level concentration ([3]; Patient 18 (Treatment), 0 Mins)
13: PEC value after infusion start ([1]; Patient 2 (treatment arm), 15 Mins) | PEC value after infusion start ([1]; Patient 11 (treatment arm), 0 Mins) | PEC value after infusion start ([1]; Patient 11 (treatment arm), 15 Mins) | PEC value after infusion start ([1]; Patient 12 (treatment arm), 0 Mins) | PEC value after infusion start ([1]; Patient 12 (treatment arm), 15 Mins) | PEC value after infusion start ([1]; Patient 12 (treatment arm), 30 Mins)
−2: RASS value after infusion start ([2]; Patient 1 (treatment arm), 15 minutes)
0.05051 ng/mL: Plasma level concentration ([3]; Patient 12 (Treatment), 45 Mins)
9: Patients (out of 10) in the treatment arm with agitation reduced to a PEC score of 7 or below ([1]; IV infusion) | PEC value after infusion start ([1]; Patient 1 (treatment arm), 0 Mins) | PEC value after infusion start ([1]; Patient 2 (treatment arm), 60 Mins) | PEC value after infusion start ([1]; Patient 4 (treatment arm), 0 Mins) | PEC value after infusion start ([1]; Patient 4 (treatment arm), 15 Mins) | PEC value after infusion start ([1]; Patient 11 (treatment arm), 45 Mins) | PEC value after infusion start ([1]; Patient 11 (treatment arm), 60 Mins) | PEC value after infusion start ([1]; Patient 14 (treatment arm), 15 Mins) | PEC value after infusion start ([1]; Patient 16 (treatment arm), 15 Mins) | Patients (out of 10) in the treatment arm who achieved a RASS score of at least −1 ([2]; IV infusion from 0.2 mcg/kg/hr rising 0.1 mcg/kg/hr every 30 minutes)
0.01472 ng/mL: Plasma level concentration ([3]; Patient 1 (Treatment), 30 Mins)
0.0443 ng/mL: Plasma level concentration ([3]; Patient 4 (Treatment), 90 Mins)
0.03993 ng/mL: Plasma level concentration ([3]; Patient 17 (Treatment), 45 Mins)
5: PEC value after infusion start ([1]; Patient 1 (treatment arm), 15 Mins) | PEC value after infusion start ([1]; Patient 12 (treatment arm), 105 Mins) | PEC value after infusion start ([1]; Patient 14 (treatment arm), 60 Mins) | PEC value after infusion start ([1]; Patient 14 (treatment arm), 75 Mins) | PEC value after infusion start ([1]; Patient 16 (treatment arm), 75 Mins) | PEC value after infusion start ([1]; Patient 17 (treatment arm), 45 Mins)
8: PEC value after infusion start ([1]; Patient 4 (treatment arm), 30 Mins) | PEC value after infusion start ([1]; Patient 4 (treatment arm), 45 Mins) | PEC value after infusion start ([1]; Patient 12 (treatment arm), 75 Mins) | PEC value after infusion start ([1]; Patient 17 (treatment arm), 15 Mins)
16: PEC value after infusion start ([1]; Patient 2 (treatment arm), 0 Mins)
0.05453 ng/mL: Plasma level concentration ([3]; Patient 18 (Treatment), 30 Mins)
0.4063 ng/mL: Plasma level concentration ([3]; Patient 14 (Treatment), 60 Mins)
0.01559 ng/mL: Plasma level concentration ([3]; Patient 16 (Treatment), 30 Mins)
0.02245 ng/mL: Plasma level concentration ([3]; Patient 1 (Treatment), 15 Mins)
7: Subjects (of 10) with >=50% reduction in PEC score ([1]; IV route) | PEC value after infusion start ([1]; Patient 2 (treatment arm), 75 Mins) | PEC value after infusion start ([1]; Patient 3 (treatment arm), 45 Mins) | PEC value after infusion start ([1]; Patient 4 (treatment arm), 60 Mins) | PEC value after infusion start ([1]; Patient 4 (treatment arm), 75 Mins) | PEC value after infusion start ([1]; Patient 4 (treatment arm), 90 Mins) | PEC value after infusion start ([1]; Patient 4 (treatment arm), 105 Mins) | PEC value after infusion start ([1]; Patient 4 (treatment arm), 120 Mins) | PEC value after infusion start ([1]; Patient 4 (treatment arm), 135 Mins) | PEC value after infusion start ([1]; Patient 11 (treatment arm), 75 Mins) | PEC value after infusion start ([1]; Patient 16 (treatment arm), 60 Mins) | PEC value after infusion start ([1]; Patient 17 (treatment arm), 30 Mins)
−10.8: PANSS-PEC Total Score, Change from baseline, mean (SD) ([4]; 180 μg)
0: RASS value after infusion start ([2]; Patient 2 (treatment arm), 30 minutes) | RASS value after infusion start ([2]; Patient 2 (treatment arm), 60 minutes) | RASS value after infusion start ([2]; Patient 3 (treatment arm), 30 minutes) | RASS value after infusion start ([2]; Patient 3 (treatment arm), 45 minutes) | RASS value after infusion start ([2]; Patient 4 (treatment arm), 30 minutes) | RASS value after infusion start ([2]; Patient 4 (treatment arm), 60 minutes) | RASS value after infusion start ([2]; Patient 4 (treatment arm), 90 minutes) | RASS value after infusion start ([2]; Patient 4 (treatment arm), 120 minutes) | RASS value after infusion start ([2]; Patient 4 (treatment arm), […]) | RASS value after infusion start ([2]; Patient 11 (treatment arm), 30 minutes) | RASS value after infusion start ([2]; Patient 11 (treatment arm), 60 minutes) | RASS value after infusion start ([2]; Patient 12 (treatment arm), 30 minutes) | RASS value after infusion start ([2]; Patient 12 (treatment arm), 60 minutes) | RASS value after infusion start ([2]; Patient 12 (treatment arm), 90 minutes) | RASS value after infusion start ([2]; Patient 14 (treatment arm), 30 minutes) | RASS value after infusion start ([2]; Patient 14 (treatment arm), 60 minutes) | RASS value after infusion start ([2]; Patient 16 (treatment arm), 30 minutes) | RASS value after infusion start ([2]; Patient 16 (treatment arm), 60 minutes) | RASS value after infusion start ([2]; Patient 17 (treatment arm), 30 minutes) | RASS value after infusion start ([2]; Patient 18 (treatment arm), 0 minutes)
10: PEC value after infusion start ([1]; Patient 3 (treatment arm), 30 Mins) | PEC value after infusion start ([1]; Patient 12 (treatment arm), 45 Mins) | PEC value after infusion start ([1]; Patient 12 (treatment arm), 60 Mins) | PEC value after infusion start ([1]; Patient 14 (treatment arm), 0 Mins) | PEC value after infusion start ([1]; Patient 16 (treatment arm), 0 Mins) | PEC value after infusion start ([1]; Patient 17 (treatment arm), 0 Mins)
−1: RASS value after infusion start ([2]; Patient 2 (treatment arm), 75 minutes) | RASS value after infusion start ([2]; Patient 3 (treatment arm), 60 minutes) | RASS value after infusion start ([2]; Patient 11 (treatment arm), 75 minutes) | RASS value after infusion start ([2]; Patient 12 (treatment arm), 120 minutes) | RASS value after infusion start ([2]; Patient 14 (treatment arm), 75 minutes) | RASS value after infusion start ([2]; Patient 16 (treatment arm), 75 minutes) | RASS value after infusion start ([2]; Patient 17 (treatment arm), 45 minutes) | RASS value after infusion start ([2]; Patient 18 (treatment arm), 15 minutes)
0.15047 ng/mL: Plasma level concentration ([3]; Patient 11 (Treatment), 60 Mins)
0.12407 ng/mL: Plasma level concentration ([3]; Patient 11 (Treatment), 45 Mins)
0.06291 ng/mL: Plasma level concentration ([3]; Patient 11 (Treatment), 30 Mins)
1: RASS value after infusion start ([2]; Patient 1 (treatment arm), 0 minutes) | RASS value after infusion start ([2]; Patient 3 (treatment arm), 0 minutes) | RASS value after infusion start ([2]; Patient 4 (treatment arm), 0 minutes) | RASS value after infusion start ([2]; Patient 11 (treatment arm), 0 minutes) | RASS value after infusion start ([2]; Patient 12 (treatment arm), 0 minutes) | RASS value after infusion start ([2]; Patient 14 (treatment arm), 0 minutes) | RASS value after infusion start ([2]; Patient 16 (treatment arm), 0 minutes) | RASS value after infusion start ([2]; Patient 17 (treatment arm), 0 minutes)
0.2673 ng/mL: Plasma level concentration ([3]; Patient 12 (Treatment), 105 Mins)
0.04487 ng/mL: Plasma level concentration ([3]; Patient 12 (Treatment), 30 Mins)
0.1086 ng/mL: Plasma level concentration ([3]; Patient 12 (Treatment), 60 Mins)
0.04836 ng/mL: Plasma level concentration ([3]; Patient 18 (Treatment), 15 Mins)
0.04101 ng/mL: Plasma level concentration ([3]; Patient 11 (Treatment), 15 Mins)
0.00256 ng/mL: Plasma level concentration ([3]; Patient 16 (Treatment), 15 Mins)
0.06788 ng/mL: Plasma level concentration ([3]; Patient 16 (Treatment), 60 Mins)
11: PEC value after infusion start ([1]; Patient 2 (treatment arm), 45 Mins) | PEC value after infusion start ([1]; Patient 11 (treatment arm), 30 Mins)
3: RASS value after infusion start ([2]; Patient 2 (treatment arm), 0 minutes)
0.23783 ng/mL: Plasma level concentration ([3]; Patient 12 (Treatment), 90 Mins)
12: PEC value after infusion start ([1]; Patient 2 (treatment arm), 30 Mins) | PEC value after infusion start ([1]; Patient 3 (treatment arm), 0 Mins) | PEC value after infusion start ([1]; Patient 3 (treatment arm), 15 Mins)
0.05266 ng/mL: Plasma level concentration ([3]; Patient 14 (Treatment), 30 Mins)
0.04653 ng/mL: Plasma level concentration ([3]; Patient 14 (Treatment), 45 Mins)
6: PEC value after infusion start ([1]; Patient 3 (treatment arm), 60 Mins) | PEC value after infusion start ([1]; Patient 12 (treatment arm), 90 Mins) | PEC value after infusion start ([1]; Patient 14 (treatment arm), 30 Mins) | PEC value after infusion start ([1]; Patient 14 (treatment arm), 45 Mins) | PEC value after infusion start ([1]; Patient 16 (treatment arm), 30 Mins) | PEC value after infusion start ([1]; Patient 16 (treatment arm), 45 Mins)
0.01587 ng/mL: Plasma level concentration ([3]; Patient 17 (Treatment), 15 Mins)

Reference: patent US12109196B2, “Non-sedating dexmedetomidine treatment regimens” (BioXcel Therapeutics, Inc., priority 2019, dated 2024)
